In publication PMC11843629, “Development of ketobenzothiazole-based peptidomimetic TMPRSS13 inhibitors with low nanomolar potency” (Journal of Enzyme Inhibition and Medicinal Chemistry, 2025):

Columns and labels:
in vitro = details: final conc. 0.2 mM, 37 °C; for half-life at 0.2 mM: male, Sprague-Dawley, rat, pooled rat plasma (K2EDTA), Mean half-life, Plasma
Excerpt: Adult male Sprague-Dawley rats, weighing between 225 and 300 g (Charles River Laboratories, St. Constant, Canada), were housed in groups of four per double-decker cage on Aspen shavings in a quiet environment. They were maintained under a 12-h light/dark cycle with unrestricted access to food and water. All experimental protocols received approval from the Animal Care Committee of the Université de Sherbrooke, adhering to the Canadian Council on Animal Care guidelines. The procedures also followed the ARRIVE guidelines (Animals in Research: Reporting In Vivo Experiments) and the United States NIH regulations (Ethics approval ID: 2022–3440). To evaluate the stability of compounds in plasma, 6 rats were anaesthetised with 2 L/min oxygen and 5% isoflurane, after which plasma was collected, pooled, and stored frozen until experiments were performed.
For evaluating plasma stability, rats were anaesthetised using a flow of 2 L/min of oxygen combined with 5% isoflurane. Blood was obtained via cardiac puncture from the left ventricle using a 20 G ½ needle, collected in pre-chilled Vacutainer K2EDTA tubes (367861), and maintained on wet ice. The blood was then centrifuged at 2000 xG for 15 min at 4 °C. Plasma samples were pooled from six rats, aliquoted, and stored at −80 °C. […] To terminate the reaction, 140 μL of a 1:1 acetonitrile-ethanol solution containing 0.25 mM N,N-dimethylbenzamide (used as an internal standard) was added. The resulting mixture was transferred onto an Impact Protein Precipitation filter plate (Phenomenex, California), with a 96-well UPLC plate positioned below to collect the filtrates. Both plates were centrifuged at 500 × g for 10 min at 4 °C. The filtrates were diluted with 30 μL of distilled water before analysis using an Acquity UPLC-MS system class H (column Acquity UPLC protein BEH C18 (2.1 mm × 50 mm), 1.7 μm particles, 130 Å pore size). The peptide’s half-life was determined from the degradation profile utilising the exponential one-phase decay function in GraphPad Prism 9. Mass spectra obtained at time points close to the calculated half-life were compared with those at 0 min (plasma inactivated prior to compound addition) to identify cleavage fragments.

TMPRSS13 = target: T1, TMPRSS13 (Homo sapiens, UniProt Q9BYE2, K566A/R563A/R565A); assay: In vitro inhibition assay, recombinant TMPRSS13-AFAAS-6His, Boc-RVRR-AMC; assay type: biochemical; details: dose-response curve, Cheng-Prusoff equation
T1 construct: Shedding of the TMPRSS13 catalytic domain was detected for both constructs in the cell media; made in house; host or cells: Expi293F cells
T1 sequence (Q9BYE2 with tags, fused parts or gaps isoform Q9BYE2-6 limits assumed): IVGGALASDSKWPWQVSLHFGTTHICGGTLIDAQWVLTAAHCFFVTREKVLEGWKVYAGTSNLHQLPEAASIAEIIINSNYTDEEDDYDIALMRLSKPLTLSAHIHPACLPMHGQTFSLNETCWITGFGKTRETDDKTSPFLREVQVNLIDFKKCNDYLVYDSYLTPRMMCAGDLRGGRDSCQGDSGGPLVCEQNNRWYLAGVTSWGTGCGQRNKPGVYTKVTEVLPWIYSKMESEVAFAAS
Protocol: TMPRSS13-AFAAS-6His was expressed via the Expi293 Expression System Kit (Thermo Fisher Scientific, A14635) according to the manufacturer’s instructions and purified via IMAC chromatography. Briefly, Expi293F cells were transfected for 48 h with the TMPRSS13-AFAAS-6His construct, and media containing the shed recombinant protease was injected on a HisTrap Excel column (Cytiva, 17371206) via an ÄKTA Start protein purification system (Cytiva). The bound proteins were then eluted (20 mM sodium phosphate pH 7.4, 500 mM NaCl, and 500 mM imidazole), and the TMPRSS13-containing fractions were dialysed for 16 h at 4 °C in storage buffer (20 mM sodium phosphate pH 7.4, 150 mM NaCl, and 10% glycerol). Proteins were then concentrated via a 10 kDa Amicon Ultra centrifugal filter (Millipore Sigma, UFC8010) and stored at −80 °C.
(§1) Recombinant TMPRSS13-AFAAS-6His (this study) and matriptase[34] were expressed and purified as described. Recombinant human furin, Factor Xa (R&D Systems) and thrombin (MilliporeSigma) were obtained from commercial sources. Assays were performed in a buffer composed of 50 mM HEPES pH 7.4, 1 mM β-mercaptoethanol, 1 mM CaCl2 and 500 μg/ml BSA for furin and 50 mM HEPES pH 7.4, 150 mM NaCl and 0.1% BSA for other proteases. Assays were performed at room temperature using fluorogenic substrates (Boc-RVRR-AMC for furin and TMPRSS13, Boc-QAR-AMC for other proteases). The enzymatic activity was measured via fluorescence (excitation at 360 nm and emission at 460 nm) at room temperature using an HTX Synergy microplate reader (Agilent). Kis for TMPRSS13 and Factor Xa (FXa) were derived from IC50 dose–response curves using the Cheng-Prusoff equation[35] for reversible competitive inhibitors. For matripase, a plot of the enzyme velocity as a function of the inhibitor concentration was fitted with nonlinear regression analysis via the Morrison Ki equation[36] for competitive tight-binding inhibitors.

human trypsin = assay: Proteolysis assay (stability) with human trypsin; assay type: in vitro ADME; details: human trypsin (isolated protease), pH 7.4, compound final conc. 10 µM, 37 °C
Protocol: For the proteolysis assay, human trypsin (#T6424, Sigma–Aldrich, Saint-Louis, Missouri, USA) was resuspended in 1 mM HCl and 20 mM CaCl2, pH 3, and diluted to a final concentration of 0.1 mg/ml in PBS buffer (pH 7.4, 10 mM PO43-, 150 mM NaCl). The control peptide R8 and the compounds of interest were added to a 96-well plate (37 °C) to a final concentration of 10 µM. Trypsin (0.1 µg/ml) was added to the wells for 0, 0.5, 1, 2, 4 and 6 h. The plate was quenched with AcN/EtOH (1:1) 1% formic acid and 0.25 mM N,N-dimethylbenzamide (IS) and centrifuged at 4 °C.

Factor Xa = target: T2, Factor Xa (Homo sapiens, UniProt P00742); assay: In vitro inhibition assay, Factor Xa, Boc-QAR-AMC; assay type: biochemical; details: Cheng-Prusoff equation
T2 construct: purchased R&D Systems
T2 sequence (P00742 235-488 limits assumed): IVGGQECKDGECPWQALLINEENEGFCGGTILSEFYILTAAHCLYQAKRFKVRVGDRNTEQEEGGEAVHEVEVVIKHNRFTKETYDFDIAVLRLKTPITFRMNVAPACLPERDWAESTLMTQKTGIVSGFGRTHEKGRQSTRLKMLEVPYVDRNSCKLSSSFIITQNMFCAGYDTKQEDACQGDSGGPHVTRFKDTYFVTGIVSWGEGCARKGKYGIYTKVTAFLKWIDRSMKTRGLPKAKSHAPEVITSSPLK
T2 sequence (P00742 41-179 partner limits assumed): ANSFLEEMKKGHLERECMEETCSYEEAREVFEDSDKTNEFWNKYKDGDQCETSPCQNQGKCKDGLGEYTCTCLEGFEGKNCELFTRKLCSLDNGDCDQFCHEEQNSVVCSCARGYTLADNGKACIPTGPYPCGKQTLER
Protocol: as §1

SMILES | half-life at 0.2 mM (in vitro) [h] | Mean half-life, Plasma (in vitro; rat plasma (male)) [h] | Ki (TMPRSS13) [nM] | half-life at 10 µM (human trypsin) [h] | Ki (Factor Xa) [nM]
N=C(N)NCCCCC(=O)N[C@@H](CCC(N)=O)C(=O)N[C@@H](Cc1ccccc1)C(=O)N[C@@H](CCCNC(=N)N)C(=O)c1nc2ccccc2s1 [Compound N-0130, (H)-RQFR-Kbt] | 79.2 | 78.5 | 24.6 | 105 | 48.2 ± 3.7
N=C(N)NCCCCC(=O)N[C@@H](CCC(N)=O)C(=O)N[C@@H](CCc1ccccc1)C(=O)N[C@@H](CCCNC(=N)N)C(=O)c1nc2ccccc2s1 [Compound N-0430, (H)-RQhFR-Kbt] | 40.8 |  | 5.3 | 29.5 | 56.9 ± 9
